Results on 22 compounds are retold here after patent US4820722A, “Disubstituted tetrazoles and their use as leukotriene antagonists” (Eli Lilly and Company, priority 1987, dated 1989).

Each structure is given as a SMILES string.

The target of one test is T1, LTD4 responses of guinea pig ileum and trachea (Cavia porcellus, UniProt Q2NNR5).
T1 sequence (Q2NNR5 1-340): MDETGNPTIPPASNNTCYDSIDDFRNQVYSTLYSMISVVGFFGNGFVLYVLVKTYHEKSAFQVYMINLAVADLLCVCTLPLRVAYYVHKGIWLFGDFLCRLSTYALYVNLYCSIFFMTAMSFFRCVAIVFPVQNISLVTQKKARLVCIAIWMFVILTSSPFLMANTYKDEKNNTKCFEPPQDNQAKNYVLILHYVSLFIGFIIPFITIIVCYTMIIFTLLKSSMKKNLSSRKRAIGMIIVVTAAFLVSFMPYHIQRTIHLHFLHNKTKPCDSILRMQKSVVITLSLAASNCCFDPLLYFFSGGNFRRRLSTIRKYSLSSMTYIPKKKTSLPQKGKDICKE
The test can be described thus: LTD4 antagonism, cumulative LTD4 concentration-response curves in guinea pig ileum and trachea (KB by Furthgott method). It is filed as cell-based, guinea pig (male Hartley). The settings on record: 30 minute incubation with antagonist, Table I title names ileal contractions.
Turning to `CCCc1c(COc2ccc(Cc3nnn(CCCCCc4nnn[nH]4)n3)cc2)ccc(C(C)=O)c1O.[Na]`, the “pKB (negative log of the dissociation KB)” value worked out at 7.64.
Still for that read-out and setting: under `CCCc1c(COc2ccc(Cc3nnn(CCCN(C)C)n3)cc2)ccc(C(C)=O)c1O` [Example 15, 5-[(4-((4-Acetyl-3-hydroxy-2-propylphenyl)methoxy)phenyl)methyl]-2-(3-(dimethylamino)propyl)-2H-tetrazole] stands 6.65; under `CCCc1c(COc2ccc(Cc3nnnn3CCCN(C)C)cc2)ccc(C(C)=O)c1O` [Example 16, 5-[(4-((4-Acetyl-3-hydroxy-2-propylphenyl)methoxy)phenyl)methyl]-1-(3-(dimethylamino)propyl)-1H-tetrazole], 6.01.
For the compound `CCCc1c(COc2ccc(Cc3nnn(CCCSC)n3)cc2)ccc(C(C)=O)c1O` [Example 17, 5-[(4-((4-Acetyl-3-hydroxy-2-propylphenyl)methoxy)phenyl)methyl]-2-(3-methylthiopropyl)-2H-tetrazole], the “pKB (negative log of the dissociation KB)” value is 6.45.
Take `CCCc1c(COc2ccc(Cc3nnn(CCCCCCc4nnn[nH]4)n3)cc2)ccc(C(C)=O)c1O` [Example 27, 1-[2-Hydroxy-3-propyl-4-[[4-[[2-[6-(1H-tetrazol-5-yl)hexyl]-2H-tetrazol-5-yl]methyl]phenoxy]methyl]phenyl]ethanone]: the “pKB (negative log of the dissociation KB)” value came out at 7.38.
Still for that read-out and setting: the result for `CCCc1c(COc2ccc(Cc3nnn(CCC(C)(C)Cc4nnn[nH]4)n3)cc2)ccc(C(C)=O)c1O` [Example 28] reads 7.70; that for `CCCc1c(COc2ccc(-c3nnn(CCCc4nnn[nH]4)n3)cc2)ccc(C(C)=O)c1O` [Example 36], 7.63.
Still for that read-out and setting: under `CCCc1c(COc2ccc(-c3nnn(CCCN(C)C)n3)cc2)ccc(C(C)=O)c1O` [Example 37, 1-[4-[[4-[2-[3-(Dimethylamino)propyl]-2H-tetrazol-5-yl]phenoxy]methyl]-2-hydroxy-3-propylphenyl]ethanone] stands 6.37.
In the case of `CCCc1c(COc2ccc(Cc3nnn(Cc4ccc(-c5nnn[nH]5)cc4)n3)cc2)ccc(C(C)=O)c1O` [Example 38, 1-[2-Hydroxy-3-propyl-4-[[4-[[2-[[4-(1H-tetrazol-5-yl)phenyl]methyl]-2H-tetrazol-5-yl]methyl]phenoxy]methyl]phenyl]ethanone], the “pKB (negative log of the dissociation KB)” value worked out at 7.90.
`CCCc1c(COc2ccc(Cc3nnn(CCC[S+](C)[O-])n3)cc2)ccc(C(C)=O)c1O` (stereo not shown) [Example 39, 5-[(4-((4-Acetyl-3-hydroxy-2-propylphenyl)methoxy)phenyl)methyl]-2-(3-methylsulfinylpropyl)-2H-tetrazole]: the “pKB (negative log of the dissociation KB)” value amounted to 6.50.
On to `CCCc1c(COc2ccc(Cc3nnn(CCCS(C)(=O)=O)n3)cc2)ccc(C(C)=O)c1O` [Example 40, 5-[(4-((4-Acetyl-3-hydroxy-2-propylphenyl)methoxy)phenyl)methyl]-2-(3-methylsulfonylpropyl)-2H-tetrazole], for which the “pKB (negative log of the dissociation KB)” value is 6.37.

The subject of a further test is LTD4 evoked contractions of guinea pig ileum. In words: LTD4 antagonism on isolated guinea pig ileum (inhibition of LTD4 evoked ileal contractions, single submaximal LTD4 responses). The format is cell-based, guinea pig (male Hartley). The settings on record: Cavia porcellus, 37° C., five minute exposure to drug, 2-4 concentrations, linear regression interpolation, read-out: -log IC50 (antagonist concentration that produced 50% inhibition of the LTD4 responses) (converted). The method, then: Male, Hartley guinea pigs weighing 200-450 grams were killed by decapitation. A section of terminal ileum was removed, the lumen cleaned, and the tissue divided into 2.5 cm. segments. The ilea were mounted in 10 ml. tissue baths containing Krebs-bicarbonate solution of the following composition in mmoles/liter: KCl, 4.6; CaCl2 ·2H2 O, 1.2; KH2 PO4, 1.2; MgSO4 ·7H20, 1.2; NaCl, 118.2; NaHCO3, 24.8; and dextrose, 10.0. The bath fluid was maintained at 37° C. and aerated with 95 percent oxygen and 5 percent CO2. In addition, the buffer contained […] atropine to reduce ileal spontaneous activity. Isometric measurements were made with a Grass FTO3C force-displacement transducer and recorded on a Grass polygraph as change in grams of force. A passive force of 0.5 g. was applied to the tissues. After an appropriate equilibration period, single submaximal control responses to pure LTD4 were obtained. Following a five minute exposure of the ileum to an experimental drug, the control concentration of LTD4 was added to the tissue bath. The response of the ileum to LTD4 in the presence of the drug was compared to the response in the absence of the drug. Various degrees of LTD4 antagonism were obtained using 2-4 different concentrations of an experimental compound on a single ileum.
As for `CCCc1c(COc2ccc(Cc3nnnn3Cc3nnn[nH]3)cc2)ccc(C(C)=O)c1O` [Example 21], the IC50 is 17.4 nM.
Same read-out and setting: the result for `CCCc1c(COc2ccc(Cc3nnn(Cc4nnn[nH]4)n3)cc2)ccc(C(C)=O)c1O` [Example 22, 1-[2-hydroxy-3-(propyl)-4-[[4-[[2-(1H-tetra-zol-5-ylmethyl)-2H-tetrazol-5-yl]methyl]phenoxyl]methyl]phenyl]ethanone] reads 11.7 nM; that for `CCCc1c(COc2ccc(Cc3nnnn3CCCc3nnn[nH]3)cc2)ccc(C(C)=O)c1O` [Example 23], 14.1 nM; that for `CCCc1c(COc2ccc(Cc3nnn(CCCc4nnn[nH]4)n3)cc2)ccc(C(C)=O)c1O` [Example 24, 1-2[-Hydroxy-3-propyl-4[[4-[[2-[3-(1H-tetra-zol-5-yl)propyl]-2H-tetrazol-5-yl]methyl]phenoxy]methyl]phenyl]ethanone], 3.8 nM.
In the case of `CCCc1c(COc2ccc(Cc3nnnn3CCCCc3nnn[nH]3)cc2)ccc(C(C)=O)c1O` [Example 25], the IC50 was 19.1 nM.
Take `CCCc1c(COc2ccc(Cc3nnn(CCCCc4nnn[nH]4)n3)cc2)ccc(C(C)=O)c1O` [Example 26, 1-[2-Hydroxy-3-propyl-4-[[4-[[2-[4-(1H-tetrazol-5-yl)butyl]tetrazol-5-yl]methyl]phenoxy]methyl]phenyl]ethanone]: the IC50 was 8.13 nM.
Still for that read-out and setting: under `CCCc1c(COc2ccc(Cc3nnn(CC(=O)O)n3)cc2)ccc(C(C)=O)c1O` [Example 31, 5-[[4-[(4-Acetyl-3-hydroxy-2-propylphenyl)methoxy]phenyl]methyl]-2H-tetrazole-2-acetic acid] stands 28.2 nM; under `CCCc1c(COc2ccc(Cc3nnnn3CCCC(=O)O)cc2)ccc(C(C)=O)c1O` [Example 32, 5-[[4-[[4-Acetyl-3-hydroxy-2-propylphenyl)methoxy]phenyl]methyl]-1H-tetrazole-1-butyric acid], 57.5 nM; under `CCCc1c(COc2ccc(Cc3nnn(CCCC(=O)O)n3)cc2)ccc(C(C)=O)c1O` [Example 33, 5-[(4-[(4-Acetyl-3-hydroxy-2-propylphenyl)methoxy]phenyl)methyl]-2H-tetrazole-2-butanoic acid], 20 nM.
On the same count and under the same terms, the result for `CCCc1c(COc2ccc(Cc3nnnn3CCCCC(=O)O)cc2)ccc(C(C)=O)c1O` [Example 34, 5-[(4-[(4-Acetyl-3-hydroxy-2-propylphenyl)methoxy]phenyl)methyl]-1H-tetrazol-1-valeric acid] reads 55 nM; that for `CCCc1c(COc2ccc(Cc3nnn(CCCCC(=O)O)n3)cc2)ccc(C(C)=O)c1O` [Example 35, 5-[(4-[(4-Acetyl-3-hydroxy-2-propylphenyl)methoxy]phenyl)methyl]-2H-tetrazole-2-valeric acid], 11.7 nM.
